Laboratory results from patent US7626031B2, “Substituted 3-(diarylmethylene)indolin-2-ones and methods of their use” (Symphony Evolution, Inc., priority 2002, dated 2009).

Experiments:
[1] = target: FGFR1 (Homo sapiens, UniProt P11362); assay: Kinase assay, FGFR1 (33P-ATP incorporation or luciferase-coupled ATP consumption); format: biochemical
Description: (§1) Kinase assays were performed by measurement of incorporation of γ-^33P ATP into immobilized myelin basic protein (MBP). […] Plates were washed 3× with 100 μl TBS. […] Compound dilutions were performed in DMSO and added to assay wells to a final DMSO concentration of 1%. Each data point was measured in duplicate, and at least two duplicate assays were performed for each individual compound determination. Enzyme was added to final concentrations of 10 nM or 20 nM, for example. A mixture of unlabeled ATP and γ-^33P ATP was added to start the reaction (2×10^6 cpm of γ-^33P ATP per well (3000 Ci/mmole) and either 10 μM or 30 μM unlabeled ATP, typically. The reactions were carried out for 1 hour at room temperature with shaking. Plates were washed 7× with TBS, followed by the addition of 50 μl/well scintillation fluid (Wallac). Plates were read using a Wallac Trilux counter. This is only one format of such assays, various other formats are possible, as known to one of ordinary skill in the art.
(§2) Tyrosine kinase activity is determined by 1) measurement of kinase-dependent ATP consumption by in the presence of a generic substrate such as, polyglutamic acid, tyrosine, 4:1 (pEY), by luciferase/luciferin-mediated chemiluminescence or; 2) incorporation of radioactive phosphate derived from ^33P-ATP into a generic substrate which has been adsorbed onto the well surface of polystyrene microtiter plates. Phosphorylated substrate products are quantified by scintillation spectrometry.
(§3) Kinase activity and compound inhibition are investigated using one or more assay formats. The ATP concentrations for each assay are selected to be close to the Michaelis-Menten constant (KM) for each individual kinase. Dose-response experiments are performed at 10 different inhibitor concentrations in a 384-well plate format. […] Exemplary kinase assays are described below. KDR Assay

[2] = target: Fyn (Homo sapiens, UniProt P06241); assay: Kinase assay, Fyn; format: biochemical
Description: as §3

[3] = target: EphA2 (Homo sapiens, UniProt P29317); assay: Kinase assay, EphA2 (33P-ATP incorporation or luciferase-coupled ATP consumption); format: biochemical
Description: as §1, §2, §3

[4] = target: T1, KDR (baculovirus expressed human KDR kinase domain D807-V1356) (Homo sapiens, UniProt P35968); assay: biochemical
T1 construct: human KDR kinase domain D807-V1356; host or cells: baculovirus expression system
Description: as §3
KDR biochemical activity was assessed using a Luciferase-Coupled Chemiluminescent Kinase assay (LCCA) format. Kinase activity was measured as the percent ATP remaining following the kinase reaction. Remaining ATP was detected by luciferase-luciferin-coupled chemiluminescence. […] The mixture is incubated at ambient temperature for 4 hours after which 20 uL luciferase-luciferin mix is added and the chemiluminescent signal read using a Wallac Victor^2 reader.

[5] = target: EGFR (Homo sapiens, UniProt P00533); assay: Kinase assay, EGFR (33P-ATP incorporation or luciferase-coupled ATP consumption); format: biochemical
Description: as §1, §2, §3

[6] = target: IRK (Homo sapiens, UniProt P06213); assay: Kinase assay, IRK; format: biochemical
Description: as §3

[7] = target: PDGFR alpha (Homo sapiens, UniProt P16234); assay: Kinase assay, PDGFR alpha (33P-ATP incorporation or luciferase-coupled ATP consumption); format: biochemical; conditions: read-out: PDGF-R-A IC50
Description: as §1, §2, §3

Chain of FGFR1 (P11362 22-822, species assumed): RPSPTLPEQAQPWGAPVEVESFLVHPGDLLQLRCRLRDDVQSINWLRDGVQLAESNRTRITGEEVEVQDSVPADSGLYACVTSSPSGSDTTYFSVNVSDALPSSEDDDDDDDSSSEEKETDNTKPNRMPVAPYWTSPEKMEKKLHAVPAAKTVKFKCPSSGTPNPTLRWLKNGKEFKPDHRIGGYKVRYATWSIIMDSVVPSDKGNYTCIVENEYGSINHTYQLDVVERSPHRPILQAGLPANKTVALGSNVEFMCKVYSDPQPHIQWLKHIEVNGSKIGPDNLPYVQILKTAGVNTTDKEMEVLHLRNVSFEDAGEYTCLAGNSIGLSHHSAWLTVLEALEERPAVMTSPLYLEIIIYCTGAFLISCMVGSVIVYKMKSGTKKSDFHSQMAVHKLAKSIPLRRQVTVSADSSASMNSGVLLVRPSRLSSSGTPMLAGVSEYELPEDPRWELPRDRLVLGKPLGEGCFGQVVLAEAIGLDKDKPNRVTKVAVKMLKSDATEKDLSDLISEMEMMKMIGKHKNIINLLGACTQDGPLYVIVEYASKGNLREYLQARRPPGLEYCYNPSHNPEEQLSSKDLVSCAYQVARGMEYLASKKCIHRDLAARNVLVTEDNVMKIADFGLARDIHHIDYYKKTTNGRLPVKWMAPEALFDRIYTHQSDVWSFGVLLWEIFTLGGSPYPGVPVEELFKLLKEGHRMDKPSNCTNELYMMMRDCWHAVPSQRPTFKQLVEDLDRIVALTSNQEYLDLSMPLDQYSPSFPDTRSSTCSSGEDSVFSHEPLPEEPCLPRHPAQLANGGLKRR
Chain of PDGFR alpha (P16234 24-1089): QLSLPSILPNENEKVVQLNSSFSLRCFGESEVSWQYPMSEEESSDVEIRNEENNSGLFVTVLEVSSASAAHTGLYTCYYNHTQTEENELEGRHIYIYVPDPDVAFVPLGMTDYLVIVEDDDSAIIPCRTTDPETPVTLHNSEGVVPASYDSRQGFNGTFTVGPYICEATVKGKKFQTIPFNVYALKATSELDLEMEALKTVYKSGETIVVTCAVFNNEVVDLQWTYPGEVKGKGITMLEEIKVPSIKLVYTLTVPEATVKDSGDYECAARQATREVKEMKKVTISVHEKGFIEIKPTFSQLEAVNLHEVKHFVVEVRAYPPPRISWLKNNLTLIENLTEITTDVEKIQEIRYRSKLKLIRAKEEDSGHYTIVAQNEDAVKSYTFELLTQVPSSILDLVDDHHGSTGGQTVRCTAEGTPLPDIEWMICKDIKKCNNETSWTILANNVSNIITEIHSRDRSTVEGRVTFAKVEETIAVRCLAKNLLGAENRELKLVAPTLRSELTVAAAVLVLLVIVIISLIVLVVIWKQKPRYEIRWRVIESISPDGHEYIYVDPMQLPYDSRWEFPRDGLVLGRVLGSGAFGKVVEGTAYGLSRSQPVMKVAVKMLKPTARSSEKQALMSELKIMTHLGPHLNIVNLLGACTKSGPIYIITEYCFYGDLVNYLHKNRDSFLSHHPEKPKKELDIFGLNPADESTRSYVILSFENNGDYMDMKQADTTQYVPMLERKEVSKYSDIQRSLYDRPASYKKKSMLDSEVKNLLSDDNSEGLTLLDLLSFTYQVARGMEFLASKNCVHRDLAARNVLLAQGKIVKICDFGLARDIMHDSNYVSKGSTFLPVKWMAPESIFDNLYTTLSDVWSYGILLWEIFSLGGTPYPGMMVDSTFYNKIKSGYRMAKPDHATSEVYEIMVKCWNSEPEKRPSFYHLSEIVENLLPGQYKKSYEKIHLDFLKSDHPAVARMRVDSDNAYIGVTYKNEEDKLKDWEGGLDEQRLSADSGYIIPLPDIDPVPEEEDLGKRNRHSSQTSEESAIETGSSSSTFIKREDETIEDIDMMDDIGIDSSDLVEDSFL
T1 sequence (P35968 807-1356): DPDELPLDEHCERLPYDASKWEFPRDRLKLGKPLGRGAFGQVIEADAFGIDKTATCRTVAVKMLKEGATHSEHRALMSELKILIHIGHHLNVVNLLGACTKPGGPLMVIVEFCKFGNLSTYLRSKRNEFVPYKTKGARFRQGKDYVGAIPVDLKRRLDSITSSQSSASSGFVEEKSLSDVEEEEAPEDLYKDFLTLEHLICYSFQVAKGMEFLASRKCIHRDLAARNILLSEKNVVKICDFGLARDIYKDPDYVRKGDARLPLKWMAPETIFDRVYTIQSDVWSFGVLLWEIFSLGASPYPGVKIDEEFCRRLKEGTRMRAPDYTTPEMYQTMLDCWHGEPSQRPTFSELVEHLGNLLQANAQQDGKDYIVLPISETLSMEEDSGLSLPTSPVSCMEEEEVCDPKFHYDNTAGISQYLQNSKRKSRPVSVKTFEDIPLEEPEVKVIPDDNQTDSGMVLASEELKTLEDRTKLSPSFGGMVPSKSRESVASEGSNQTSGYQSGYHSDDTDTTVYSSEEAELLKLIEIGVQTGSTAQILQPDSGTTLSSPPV
Chain of IRK (P06213 28-1382): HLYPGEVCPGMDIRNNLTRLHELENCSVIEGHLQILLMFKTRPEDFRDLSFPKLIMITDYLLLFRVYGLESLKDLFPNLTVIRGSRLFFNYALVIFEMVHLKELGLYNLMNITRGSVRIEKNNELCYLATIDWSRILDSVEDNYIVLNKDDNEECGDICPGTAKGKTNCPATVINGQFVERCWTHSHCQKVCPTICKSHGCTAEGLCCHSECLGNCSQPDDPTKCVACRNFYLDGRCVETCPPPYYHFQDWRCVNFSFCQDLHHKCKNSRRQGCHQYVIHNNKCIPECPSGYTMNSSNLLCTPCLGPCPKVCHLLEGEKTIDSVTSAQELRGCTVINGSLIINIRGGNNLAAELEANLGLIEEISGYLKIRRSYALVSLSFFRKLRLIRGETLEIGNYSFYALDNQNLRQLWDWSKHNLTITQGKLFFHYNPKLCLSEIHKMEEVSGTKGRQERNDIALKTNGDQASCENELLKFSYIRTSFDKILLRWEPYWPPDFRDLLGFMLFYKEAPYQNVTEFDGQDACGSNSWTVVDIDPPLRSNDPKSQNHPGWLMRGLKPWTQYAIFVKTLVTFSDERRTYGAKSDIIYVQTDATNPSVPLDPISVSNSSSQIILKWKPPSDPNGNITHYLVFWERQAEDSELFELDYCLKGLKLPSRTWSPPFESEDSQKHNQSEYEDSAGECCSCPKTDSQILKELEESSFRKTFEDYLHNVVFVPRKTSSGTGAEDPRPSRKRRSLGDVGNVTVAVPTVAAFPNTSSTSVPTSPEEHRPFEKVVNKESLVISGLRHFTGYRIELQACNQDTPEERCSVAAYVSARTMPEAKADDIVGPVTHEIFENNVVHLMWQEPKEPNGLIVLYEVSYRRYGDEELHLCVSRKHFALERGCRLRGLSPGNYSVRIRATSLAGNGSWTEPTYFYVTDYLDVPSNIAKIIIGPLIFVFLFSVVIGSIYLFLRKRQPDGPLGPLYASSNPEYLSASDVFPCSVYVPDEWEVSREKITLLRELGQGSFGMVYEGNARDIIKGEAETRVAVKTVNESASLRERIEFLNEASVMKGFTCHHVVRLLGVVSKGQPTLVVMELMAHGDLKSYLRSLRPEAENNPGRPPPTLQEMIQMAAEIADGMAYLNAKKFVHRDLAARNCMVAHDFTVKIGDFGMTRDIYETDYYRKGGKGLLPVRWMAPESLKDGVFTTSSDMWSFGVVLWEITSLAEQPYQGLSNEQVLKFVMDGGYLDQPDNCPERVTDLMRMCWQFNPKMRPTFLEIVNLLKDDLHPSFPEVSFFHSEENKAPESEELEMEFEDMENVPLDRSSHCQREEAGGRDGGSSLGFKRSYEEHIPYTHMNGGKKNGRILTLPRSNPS
Chain of Fyn (P06241 whole entry, species assumed): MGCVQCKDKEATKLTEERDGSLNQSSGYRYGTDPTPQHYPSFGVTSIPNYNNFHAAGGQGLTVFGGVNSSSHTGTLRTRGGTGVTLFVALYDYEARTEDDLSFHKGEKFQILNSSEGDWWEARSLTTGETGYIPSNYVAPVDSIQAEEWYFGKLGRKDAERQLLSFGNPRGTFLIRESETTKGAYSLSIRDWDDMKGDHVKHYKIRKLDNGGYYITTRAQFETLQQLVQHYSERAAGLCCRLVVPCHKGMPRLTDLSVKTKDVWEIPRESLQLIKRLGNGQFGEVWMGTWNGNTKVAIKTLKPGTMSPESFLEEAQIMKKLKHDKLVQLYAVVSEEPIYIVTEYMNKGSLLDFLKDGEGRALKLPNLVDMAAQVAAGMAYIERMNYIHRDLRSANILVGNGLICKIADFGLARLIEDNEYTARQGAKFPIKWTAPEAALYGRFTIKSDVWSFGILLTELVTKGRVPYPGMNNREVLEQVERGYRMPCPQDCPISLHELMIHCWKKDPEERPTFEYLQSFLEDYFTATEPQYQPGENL

IC50 [1] [nM]	IC50 [2] [nM]	IC50 [3] [nM]	IC50 [4] [nM]	IC50 [5] [nM]	IC50 [6] [µM]	IC50 [7] [nM]	Structure (SMILES)
50 to 500	50 to 500	500 to 5000	50 to 500	> 5000	> 5	–	COCCN1CCC(Nc2ccc3c(c2)/C(=C(\c2ccc(C(F)(F)F)nc2)c2ncc[nH]2)C(=O)N3)CC1 [Entry 98]
< 50	50 to 500	500 to 5000	< 50	> 5000	> 5	< 50	COCCN1CCC(Nc2ccc3c(c2)/C(=C(\c2ccc(C(F)(F)F)cc2)c2ncc[nH]2)C(=O)N3)CC1 [Entry 71]
< 50	< 50	50 to 500	< 50	50 to 500	0.5 to 5	< 50	COCCN1CCC(Nc2ccc3c(c2)/C(=C(\c2ccc(C)c(F)c2)c2ncc[nH]2)C(=O)N3)CC1 [Entry 63, (3Z)-3-[(3-fluoro-4-methylphenyl)(1H-imidazol-2-yl)methylidene]-5-({1-[2-(methyloxy)ethyl]piperidin-4-yl}amino)-1,3-dihydro-2H-indol-2-one]
< 50	< 50	50 to 500	< 50	50 to 500	0.5 to 5	< 50	COCCN1CCC(Nc2ccc3c(c2)/C(=C(\c2cccc(F)c2)c2nc(C)c[nH]2)C(=O)N3)CC1 [Entry 70, (3Z)-3-[(3-fluorophenyl)(4-methyl-1H-imidazol-2-yl)methylidene]-5-({1-[2-(methyloxy)ethyl]piperidin-4-yl}amino)-1,3-dihydro-2H-indol-2-one]
< 50	< 50	50 to 500	< 50	50 to 500	0.5 to 5	< 50	COCCN1CCC(Nc2ccc3c(c2)/C(=C(\c2ccc(C)cc2)c2nc(C)c[nH]2)C(=O)N3)CC1 [Entry 77, (3Z)-3-[(4-methyl-1H-imidazol-2-yl)(4-methylphenyl)methylidene]-5-({1-[2-(methyloxy)ethyl]piperidin-4-yl}amino)-1,3-dihydro-2H-indol-2-one]
50 to 500	> 5000	> 5000	50 to 500	> 5000	> 5	–	CCN1CCC(Nc2ccc3c(c2)/C(=C(\c2cccc(F)c2)c2ncn[nH]2)C(=O)N3)CC1 [Entry 99, (3Z)-5-[(1-ethylpiperidin-4-yl)amino]-3-[(3-fluorophenyl)(1H-1,2,4-triazol-5-yl)methylidene]-1,3-dihydro-2H-indol-2-one]
50 to 500	< 50	500 to 5000	< 50	–	0.5 to 5	< 50	CCN1CCC(Nc2ccc3c(c2)/C(=C(\c2ccc(F)c(C)c2)c2nc4ccccc4[nH]2)C(=O)N3)CC1 [Entry 52, (3Z)-3-[1H-benzimidazol-2-yl(4-fluoro-3-methylphenyl)methylidene]-5-{(1-ethylpiperidin-4-yl)amino]-1,3-dihydro-2H-indol-2-one]
< 50	< 50	500 to 5000	< 50	> 5000	0.5 to 5	< 50	COCCN1CCC(Nc2ccc3c(c2)/C(=C(\c2ccc(Cl)cc2)c2ncc[nH]2)C(=O)N3)CC1 [Entry 91, (3Z)-3-[(4-chlorophenyl)(1H-imidazol-2-yl)methylidene]-5-({1-[2-(methyloxy)ethyl]piperidin-4-yl}amino)-1,3-dihydro-2H-indol-2-one]
50 to 500	< 50	500 to 5000	< 50	> 5000	> 5	< 50	COCCN1CCC(Nc2ccc3c(c2)/C(=C(\c2ccc(OC)cc2)c2ncc[nH]2)C(=O)N3)CC1 [Entry 90]
50 to 500	50 to 500	500 to 5000	< 50	> 5000	> 5	< 50	COCCN1CCC(Nc2ccc3c(c2)/C(=C(\c2ccc(F)c(F)c2)c2ncc[nH]2)C(=O)N3)CC1 [Entry 79]
< 50	< 50	50 to 500	< 50	> 5000	0.5 to 5	< 50	O=C1Nc2ccc(NC3CCNCC3)cc2/C1=C(\c1cccc(F)c1)c1ncc[nH]1 [Entry 81, (3Z)-3-[(3-fluorophenyl)(1H-imidazol-2-yl)methylidene]-5-(piperidin-4-ylamino)-1,3-dihydro-2H-indol-2-one]
–	500 to 5000	500 to 5000	–	500 to 5000	–	–	CCN1CCCC(Nc2ccc3c(c2)/C(=C(\c2ccccc2)c2nc4cc(OC)ccc4[nH]2)C(=O)N3)C1 (stereo not drawn) [Entry 2, (3Z)-5-[(1-ethylpiperidin-3-yl)amino]-3-[[5-(methyloxy)-1H-benzimidazol-2-yl](phenyl)methylidene]-1,3-dihydro-2H-indol-2-one]
50 to 500	< 50	500 to 5000	< 50	–	0.5 to 5	< 50	CCN1CCC(Nc2ccc3c(c2)/C(=C(\c2ccccc2)c2nc4cc(Cl)ccc4[nH]2)C(=O)N3)CC1 [Entry 55, (3Z)-3-[(5-chloro-1H-benzimidazol-2-yl)(phenyl)methylidene]-5-[(1-ethylpiperidin-4-yl)amino]-1,3-dihydro-2H-indol-2-one]
50 to 500	< 50	500 to 5000	< 50	–	> 5	< 50	CCN1CCC(Nc2ccc3c(c2)/C(=C(\c2cc(F)cc(F)c2)c2nc4cc(Cl)ccc4[nH]2)C(=O)N3)CC1 [Entry 56, (3Z)-3-[(5-chloro-1H-benzimidazol-2-yl) (3,5-dilfuorophenyl)methylidene]-5-[(1-ethylpiperidin-4-yl)amino]-1,3-dihydro-2H-indol-2-one]
< 50	< 50	500 to 5000	< 50	50 to 500	0.5 to 5	–	CCN1CCC(Nc2ccc3c(c2)/C(=C(\c2cccc(F)c2)c2nc(-c4ccccc4)c[nH]2)C(=O)N3)CC1 [Entry 95, (3Z)-5-[(1-ethylpiperidin-4-yl)amino]-3-[(3-fluorophenyl)(4-phenyl-1H-imidazol-2-yl)methylidene]-1,3-dihydro-2H-indol-2-one]
–	< 50	500 to 5000	–	500 to 5000	0.5 to 5	–	CCN1CCC(Oc2ccc3c(c2)/C(=C(\c2ccccc2)c2nc4cc(OC)ccc4[nH]2)C(=O)N3)CC1 [Entry 14, (3Z)-5-[(1-ethytpiperidin-4-yl)oxy]-3-[[5-(methyloxy)-1H-benzimidazol-2-yl](phenyl)methylidene]-1,3-dihydro-2H-indol-2-one]
< 50	< 50	500 to 5000	< 50	50 to 500	0.5 to 5	–	CCCc1ccc(/C(=C2/C(=O)Nc3ccc(NC4CCN(CCOC)CC4)cc32)c2ncc[nH]2)cc1 [Entry 94, (3Z)-3-[1H-imidazol-2-yl(4-propylphenyl)methylidene]-5-({1-[2-(methyloxy)ethyl]piperidin-4-yl}amino)-1,3-dihydro-2H-indol-2-one]
50 to 500	> 5000	> 5000	50 to 500	> 5000	0.5 to 5	–	CS(=O)(=O)N1CCC(Nc2ccc3c(c2)/C(=C(\c2cccc(F)c2)c2ncc[nH]2)C(=O)N3)CC1 [Entry 93, (3Z)-3-[(3-fluorophenyl)(1H-imidazol-2-yl)methylidene]-5-{[1-(methylsulfonyl)piperidin-4-yl]amino}-1,3-dihydro-2H-indol-2-one]
< 50	< 50	500 to 5000	< 50	50 to 500	0.5 to 5	–	COCCN1CCC(Nc2ccc3c(c2)/C(=C(\c2cccc(F)c2)c2nc(-c4ccccc4)c[nH]2)C(=O)N3)CC1 [Entry 96, (3Z)-3-[(3-fluorophenyl)(4-phenyl-1H-imidazol-2-yl)methylidene]-5-({1-[2-(methyloxy)ethyl]piperidin-4-yl}amino)-1,3-dihydro-2H-indol-2-one]
